Laboratory results: PubChem BioAssay AID330 (DTP/NCI, 2004)
“And” between values parts separate entries of the source, which are not always exact repeats. Equal values may be shown once. Inconclusive results and toxic doses are left out.

System: P388 leukemia ip, CD2F1 mice, survival T/C
Assay: NCI In Vivo Anticancer Drug Screen. Data for tumor model P388 Leukemia (intraperitoneal) in CD2F1 (CDF1) mice
Conditions: endpoint: median survival time, higher = longer survival
Procedure, shortened: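 Mice carrying the transplanted tumor received test compound or vehicle. Survival was recorded in each group, and the value is the treated-group measurement divided by that of the vehicle-treated control group.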

[1] = dose: 60.0 mg/kg/injection, schedule: Q01DX005 (ip), vehicle: saline with Tween-80
[2] = dose: 120.0 mg/kg/injection, schedule: Q01DX005 (ip), vehicle: saline with Tween-80
[3] = dose: 240.0 mg/kg/injection, schedule: Q01DX005 (ip), vehicle: saline with Tween-80
[4] = dose: 50.0 mg/kg/injection, schedule: Q01DX005 (ip), vehicle: Klucel (hydroxypropylcellulose) (HPC)
[5] = dose: 100.0 mg/kg/injection, schedule: Q01DX005 (ip), vehicle: Klucel (hydroxypropylcellulose) (HPC)
[6] = dose: 200.0 mg/kg/injection, schedule: Q01DX005 (ip), vehicle: Klucel (hydroxypropylcellulose) (HPC)
[7] = dose: 50.0 mg/kg/injection, schedule: Q01DX009 (ip), vehicle: saline
[8] = dose: 100.0 mg/kg/injection, schedule: Q01DX009 (ip), vehicle: saline
[9] = dose: 200.0 mg/kg/injection, schedule: Q01DX009 (ip), vehicle: saline
[10] = dose: 50.0 mg/kg/injection, schedule: Q01DX009 (ip), vehicle: saline with Tween-80
[11] = dose: 100.0 mg/kg/injection, schedule: Q01DX009 (ip), vehicle: saline with Tween-80
[12] = dose: 200.0 mg/kg/injection, schedule: Q01DX009 (ip), vehicle: saline with Tween-80
[13] = dose: 50.0 mg/kg/injection, schedule: Q01DX009 (ip), vehicle: Klucel (hydroxypropylcellulose) (HPC)
[14] = dose: 100.0 mg/kg/injection, schedule: Q01DX009 (ip), vehicle: Klucel (hydroxypropylcellulose) (HPC)
[15] = dose: 200.0 mg/kg/injection, schedule: Q01DX009 (ip), vehicle: Klucel (hydroxypropylcellulose) (HPC)
[16] = dose: 100.0 mg/kg/injection, schedule: Q04DX003 (ip), vehicle: saline with Tween-80
[17] = dose: 25.0 mg/kg/injection, schedule: Q01DX009 (ip), vehicle: other
[18] = dose: 50.0 mg/kg/injection, schedule: Q01DX005 (ip), vehicle: saline with Tween-80
[19] = dose: 100.0 mg/kg/injection, schedule: Q01DX005 (ip), vehicle: saline with Tween-80
[20] = dose: 200.0 mg/kg/injection, schedule: Q01DX005 (ip), vehicle: saline with Tween-80
[21] = dose: 100.0 mg/kg/injection, schedule: Q01DX001 (ip), vehicle: saline with Tween-80
[22] = dose: 200.0 mg/kg/injection, schedule: Q01DX001 (ip), vehicle: saline with Tween-80
[23] = dose: 400.0 mg/kg/injection, schedule: Q01DX001 (ip), vehicle: saline with Tween-80

For `CCC1CC(C)C(=O)NC1=O` (centres undefined), the T/C (dose: 12.5 mg/kg/injection, schedule: Q04DX003 (ip), vehicle: saline) was 100 % of control, the T/C (dose: 25.0 mg/kg/injection, schedule: Q04DX003 (ip), vehicle: saline) was 100 % of control and the T/C (dose: 50.0 mg/kg/injection, schedule: Q04DX003 (ip), vehicle: saline) was 109 % of control.
With `Oc1ccc(Br)cc1C(c1ccc2c(c1)OCO2)N1CCOCC1` (centres undefined) the T/C [1] was 100 % of control, the T/C [2] was 101 % of control and the T/C [3] was 102 % of control.
With `COP1(=O)CC(=O)C(C)(C)N1C` (centres undefined) the T/C [4] was 101 % of control, the T/C [5] was 107 % of control and the T/C [6] was 111 % of control.
`CCOC(=O)c1ccc2nc(/N=C/c3ccccc3Cl)sc2c1` was tested, and the T/C [7] was 105 % of control, the T/C [8] was 108 % of control and the T/C [9] was 105 % of control.
With `CC(C)=C1CC(C)(C)N2CCCC12` (centres undefined) the T/C [4] was 100 % of control.
With `Cn1c2cc3ccccc3cc2nc2cc3c(cc21)c(Cl)c(=O)c1ccccc13` the T/C [10] was 109 % of control, the T/C [11] was 99 % of control and the T/C [12] was 100 % of control.
With `Nc1nc(SCc2ccccc2)sc1C(=O)N1CCCCC1` the T/C [13] was 100 % of control, the T/C [14] was 100 % of control and the T/C [15] was 101 % of control.
`Cc1nc2[nH]c(=S)[nH]c(=O)c2nc1C` was tested, and the T/C [11] was 104 % of control, the T/C [16] was 95 % of control and the T/C [12] was 100 % of control. For the same compound, the T/C (dose: 200.0 mg/kg/injection, schedule: Q04DX003 (ip), vehicle: saline with Tween-80) was 95 % of control, the T/C (dose: 400.0 mg/kg/injection, schedule: Q01DX009 (ip), vehicle: saline with Tween-80) was 95 % of control and the T/C (dose: 400.0 mg/kg/injection, schedule: Q04DX003 (ip), vehicle: saline with Tween-80) was 95 % of control.
With `COc1cc2c[n+](C)c3c4cc5c(cc4ccc3c2cc1OC)OCO5` (tested in a mixture with another compound) the T/C (dose: 3.13 mg/kg/injection, schedule: Q01DX009 (ip), vehicle: other) was 103 % of control, the T/C (dose: 6.25 mg/kg/injection, schedule: Q01DX009 (ip), vehicle: Klucel (hydroxypropylcellulose) (HPC)) was 159 % of control and the T/C (dose: 6.25 mg/kg/injection, schedule: Q01DX009 (ip), vehicle: other) was 151 % of control. For the same compound, the T/C (dose: 7.4 mg/kg/injection, schedule: Q01DX009 (ip), vehicle: other) was 116 % of control, the T/C (dose: 12.5 mg/kg/injection, schedule: Q01DX009 (ip), vehicle: other) was 156 % of control and the T/C [17] was 173 % of control. For the same compound, the T/C (dose: 50.0 mg/kg/injection, schedule: Q01DX009 (ip), vehicle: water) was 99 % of control.
In the case of `CCOC(=O)CC(CSCP(=O)(OCC)OCC)C(=O)OCC` (centres undefined), the T/C [1] is reported as 105 % of control, the T/C [2] is reported as 94 % of control and the T/C [3] is reported as 100 % of control.
`O=c1ccn(C2CC(O)C(CO)O2)c(=O)[nH]1` (centres undefined) was tested, and the T/C [4] was 100 % of control, the T/C [5] was 101 % of control and the T/C [6] was 106 % of control.
`CCOC(=O)C1CC1c1c(C)c2cc3[nH]c(cc4nc(cc5nc(cc1[nH]2)C(C)=C5CCC(=O)OC)C(CCC(=O)OC)=C4C)c(C)c3C1CC1C(=O)OCC` (centres undefined) was tested, and the T/C [18] was 93 % of control and the T/C [19] was 86 % of control.
`COc1ccc2ccccc2c1C(=O)CCCc1ccccc1` was tested, and the T/C [17] was 98 % of control, the T/C (dose: 50.0 mg/kg/injection, schedule: Q01DX009 (ip), vehicle: other) was 98 % of control and the T/C (dose: 100.0 mg/kg/injection, schedule: Q01DX009 (ip), vehicle: other) was 98 % of control. The T/C (dose: 200.0 mg/kg/injection, schedule: Q01DX009 (ip), vehicle: other) was 92 % of control and the T/C (dose: 400.0 mg/kg/injection, schedule: Q01DX009 (ip), vehicle: other) was 105 % of control.
With `CCOC(=O)CCS(=O)c1ccccc1` (centres undefined) the T/C [13] was 114 % of control, the T/C [14] was 109 % of control and the T/C [15] was 104 % of control.
In the case of `NCCNCC(O)CO` (centres undefined), the T/C (dose: 50.0 mg/kg/injection, schedule: Q01DX005 (ip), vehicle: saline + Tween-80 + alcohol) is reported as 102 % of control, the T/C (dose: 100.0 mg/kg/injection, schedule: Q01DX005 (ip), vehicle: saline + Tween-80 + alcohol) is reported as 102 % of control and the T/C (dose: 200.0 mg/kg/injection, schedule: Q01DX005 (ip), vehicle: saline + Tween-80 + alcohol) is reported as 99 % of control.
In the case of `O=S1(=O)N=C(c2ccccc2)CC(c2ccccc2)N1` (centres undefined), the T/C [10] is reported as 100 % of control, the T/C [11] is reported as 90 % of control and the T/C [12] is reported as 90 % of control.
`O=C1C=CC(=O)c2c(O)ccc(O)c21` was tested, and the T/C (dose: 0.2 mg/kg/injection, schedule: Q01DX005 (ip), vehicle: saline with Tween-80) was 102 % of control, the T/C (dose: 0.4 mg/kg/injection, schedule: Q01DX005 (ip), vehicle: saline with Tween-80) was 97 % of control and the T/C (dose: 0.8 mg/kg/injection, schedule: Q01DX005 (ip), vehicle: saline with Tween-80) was 98 % of control. For the same compound, the T/C (dose: 1.0 mg/kg/injection, schedule: Q04DX003 (ip), vehicle: saline with Tween-80) was 100 % of control, the T/C (dose: 2.0 mg/kg/injection, schedule: Q04DX003 (ip), vehicle: saline with Tween-80) was 104 % of control and the T/C (dose: 4.0 mg/kg/injection, schedule: Q04DX003 (ip), vehicle: saline with Tween-80) was 100 % of control.
`N#CC(C(=O)CCCC(=O)Nc1cccc([N+](=O)[O-])c1)c1c(Cl)cccc1Cl` (centres undefined) was tested, and the T/C [18] was 111 % of control, the T/C [19] was 111 % of control and the T/C [20] was 105 % of control.
With `O=C(O)C1CSC(c2coc3ccccc3c2=O)N1` (centres undefined) the T/C (dose: 50.0 mg/kg/injection, schedule: Q01DX009 (ip), vehicle: suspension in saline) was 108 % of control, the T/C (dose: 100.0 mg/kg/injection, schedule: Q01DX009 (ip), vehicle: suspension in saline) was 117 % of control and the T/C (dose: 200.0 mg/kg/injection, schedule: Q01DX009 (ip), vehicle: suspension in saline) was 108 % of control.
`Cc1ccc(S(=O)(=O)Nc2ccc3nc(C)oc3c2)cc1` was tested, and the T/C [21] was 100 % of control, the T/C [22] was 100 % of control and the T/C [23] was 100 % of control.
With `S=c1nc2ccccn2c(=S)n1-c1ccccn1` the T/C (dose: 50.0 mg/kg/injection, schedule: Q04DX003 (ip), vehicle: saline with Tween-80) was 95 % of control and the T/C [16] was 115 % of control.
For `Cc1cc(C)nc(/N=C/c2ccccc2O)c1`, the T/C [7] was 98 % of control, the T/C [8] was 88 % of control and the T/C [9] was 91 % of control.
`O=C(Nc1cc(Cl)ccc1Cl)/C(Cl)=C1/Sc2ccccc2NC1=O` was tested, and the T/C [21] was 108 % of control, the T/C [22] was 90 % of control and the T/C [23] was 90 % of control.
With `[NH-]C(CCC(N)=O)C(=O)O.[NH-]C(CCC(N)=O)C(=O)O.[Ni+2]` (centres undefined) the T/C (dose: 6.25 mg/kg/injection, schedule: Q01DX005 (ip), vehicle: saline) was 93 % of control and the T/C (dose: 12.5 mg/kg/injection, schedule: Q01DX005 (ip), vehicle: saline) was 96 % of control.
With `Cc1ncn(-c2ccccc2)c(=O)c1N=Cc1ccccc1` the T/C [1] was 86 % of control and the T/C [2] was 87 % of control.
`C=C(C)C1=CC(=O)C2CCCC(C)C2(C)C1OC(C)=O` (centres undefined) was tested, and the T/C (dose: 75.0 mg/kg/injection, schedule: Q01DX001 (ip), vehicle: Klucel (hydroxypropylcellulose) (HPC)) was 100 % of control, the T/C (dose: 150.0 mg/kg/injection, schedule: Q01DX001 (ip), vehicle: Klucel (hydroxypropylcellulose) (HPC)) was 106 % of control and the T/C (dose: 300.0 mg/kg/injection, schedule: Q01DX001 (ip), vehicle: Klucel (hydroxypropylcellulose) (HPC)) was 107 % of control.
For `CC(C)(CCC#N)C1NC(C(=O)O)CS1` (centres undefined), the T/C [7] was 102 % of control, the T/C [8] was 99 % of control and the T/C [9] was 87 % of control.
For `N=C(N)c1ccc(/C=C/c2cc3cc(C(=N)N)ccc3o2)cc1`, the T/C (dose: 12.5 mg/kg/injection, schedule: Q04DX003 (ip), vehicle: suspension in saline) was 112 % of control, the T/C (dose: 25.0 mg/kg/injection, schedule: Q04DX003 (ip), vehicle: suspension in saline) was 118 % of control and the T/C (dose: 50.0 mg/kg/injection, schedule: Q04DX003 (ip), vehicle: suspension in saline) was 120 % of control. The T/C (dose: 100.0 mg/kg/injection, schedule: Q04DX003 (ip), vehicle: suspension in saline) was 178 % of control.
In the case of `S=C(NCNC(=S)c1ccncc1)c1ccncc1`, the T/C [18] is reported as 100 % of control and 111 % of control, the T/C [19] is reported as 108 % of control and 120 % of control and the T/C [20] is reported as 104 % of control.
